Source: the NIST ThermoML archive (doi:10.1016/j.jct.2007.08.002)
± gives the expanded uncertainty stated by the source.

Assay: molar heat capacity at saturation pressure
Settings: Crystal 3, Small (less than 1 g) adiabatic calorimetry

NC12CC3CC(CC(C3)C1)C2 [tricyclo(3.3.1.1:3,7)decan-1-amine]
Settings | molar heat capacity [J/K/mol]
5.371 K | 0.5825 ± 0.031
5.674 K | 0.6834 ± 0.033
5.933 K | 0.7778 ± 0.035
6.225 K | 0.9013 ± 0.037
6.555 K | 1.05 ± 0.039
6.892 K | 1.221 ± 0.042
7.234 K | 1.413 ± 0.046
7.582 K | 1.615 ± 0.049
7.934 K | 1.847 ± 0.053
8.29 K | 2.095 ± 0.057
8.65 K | 2.364 ± 0.061
9.012 K | 2.653 ± 0.066
9.378 K | 2.953 ± 0.07
9.748 K | 3.269 ± 0.075
10.12 K | 3.61 ± 0.08
10.59 K | 4.072 ± 0.086
11.18 K | 4.667 ± 0.095
11.76 K | 5.291 ± 0.1
12.35 K | 5.952 ± 0.11
12.95 K | 6.634 ± 0.12
13.55 K | 7.353 ± 0.13
14.16 K | 8.092 ± 0.14
14.78 K | 8.863 ± 0.15
15.5 K | 9.794 ± 0.16
16.34 K | 10.89 ± 0.17
17.18 K | 12.01 ± 0.18
18.02 K | 13.1 ± 0.19
18.87 K | 14.19 ± 0.2
19.72 K | 15.29 ± 0.21
20.86 K | 16.74 ± 0.22
22.27 K | 18.51 ± 0.22
23.71 K | 20.25 ± 0.23
25.14 K | 21.91 ± 0.24
26.57 K | 23.5 ± 0.24
28.24 K | 25.24 ± 0.24
29.96 K | 26.91 ± 0.23
31.58 K | 28.39 ± 0.24
33.36 K | 29.89 ± 0.25
35.14 K | 31.32 ± 0.26
36.93 K | 32.63 ± 0.27
38.72 K | 33.88 ± 0.27
40.51 K | 35.04 ± 0.27
42.4 K | 36.18 ± 0.28
44.38 K | 37.34 ± 0.29
46.37 K | 38.43 ± 0.29
48.36 K | 39.47 ± 0.3
50.35 K | 40.45 ± 0.3
52.35 K | 41.44 ± 0.31
54.34 K | 42.38 ± 0.32
56.34 K | 43.3 ± 0.32
58.35 K | 44.2 ± 0.32
60.36 K | 45.16 ± 0.32
62.36 K | 46.1 ± 0.33
64.37 K | 46.99 ± 0.33
66.38 K | 47.92 ± 0.34
68.39 K | 48.83 ± 0.34
70.41 K | 49.75 ± 0.35
72.42 K | 50.71 ± 0.36
74.44 K | 51.65 ± 0.36
76.46 K | 52.68 ± 0.37
78.49 K | 53.68 ± 0.37
78.62 K | 53.84 ± 0.37
80.52 K | 54.78 ± 0.37
80.69 K | 54.93 ± 0.37
82.5 K | 55.83 ± 0.38
82.55 K | 55.82 ± 0.38
84.31 K | 56.77 ± 0.38
84.59 K | 56.97 ± 0.38
86.12 K | 57.74 ± 0.39
88.91 K | 59.25 ± 0.4
91 K | 60.41 ± 0.44
92.82 K | 61.47 ± 0.45
94.65 K | 62.47 ± 0.45
96.48 K | 63.45 ± 0.46
98.3 K | 64.46 ± 0.46
100.14 K | 65.47 ± 0.47
101.97 K | 66.49 ± 0.47
103.81 K | 67.54 ± 0.47
105.65 K | 68.56 ± 0.47
107.49 K | 69.56 ± 0.48
109.33 K | 70.65 ± 0.48
111.18 K | 71.75 ± 0.49
113.03 K | 72.83 ± 0.49
114.88 K | 73.92 ± 0.5
116.73 K | 75.05 ± 0.5
118.59 K | 76.14 ± 0.51
120.45 K | 77.29 ± 0.51
122.31 K | 78.44 ± 0.52
124.17 K | 79.61 ± 0.52
126.03 K | 80.8 ± 0.52
127.9 K | 82.02 ± 0.53
129.77 K | 83.23 ± 0.5
131.64 K | 84.39 ± 0.5
133.51 K | 85.64 ± 0.58
135.38 K | 86.8 ± 0.58
137.26 K | 88.05 ± 0.58
139.13 K | 89.21 ± 0.58
141.01 K | 90.54 ± 0.58
142.89 K | 91.79 ± 0.58
144.78 K | 93.04 ± 0.58
146.66 K | 94.37 ± 0.58
148.56 K | 95.62 ± 0.58
150.44 K | 96.95 ± 0.58
150.6 K | 97.03 ± 0.58
152.33 K | 98.28 ± 0.58
153.55 K | 99.11 ± 0.58
154.22 K | 99.61 ± 0.58
156.12 K | 100.94 ± 0.58
156.34 K | 101.19 ± 0.58
158.01 K | 102.27 ± 0.58
159.13 K | 103.18 ± 0.58
159.9 K | 103.68 ± 0.58
161.8 K | 105.09 ± 0.58
161.91 K | 105.26 ± 0.58
163.69 K | 106.59 ± 0.67
164.48 K | 107.17 ± 0.67
165.59 K | 108 ± 0.67
166.66 K | 108.92 ± 0.67
167.48 K | 109.5 ± 0.67
168.73 K | 110.58 ± 0.67
169.38 K | 111 ± 0.67
170.79 K | 112.25 ± 0.67
171.28 K | 112.58 ± 0.67
172.85 K | 113.91 ± 0.67
173.18 K | 114.16 ± 0.67
174.91 K | 115.65 ± 0.67
175.08 K | 115.74 ± 0.67
176.96 K | 117.4 ± 0.67
176.98 K | 117.32 ± 0.67
178.89 K | 119.06 ± 0.67
179.01 K | 119.23 ± 0.67
180.8 K | 120.73 ± 0.67
181.05 K | 120.98 ± 0.67
182.71 K | 122.39 ± 0.67
183.09 K | 122.8 ± 0.67
184.61 K | 124.05 ± 0.67
185.12 K | 124.63 ± 0.67
186.52 K | 125.8 ± 0.67
187.15 K | 126.46 ± 0.75
188.43 K | 127.63 ± 0.75
189.18 K | 128.38 ± 0.75
190.33 K | 129.46 ± 0.75
191.2 K | 130.37 ± 0.75
192.24 K | 131.37 ± 0.75
193.21 K | 132.53 ± 0.75
194.15 K | 133.36 ± 0.75
195.22 K | 134.61 ± 0.75
